The text below walks through data of ChEMBL document CHEMBL1143450, “Potential metabolites of a condensed 2,3-benzodiazepine derivative” (Bioorg Med Chem Lett, 2005).

For test [1], the system named is Mus musculus. In words: Effective p.o. dose tested for anticonvulsant activity using maximal electroshock seizure model in mouse (value range= 17.9-32.1 mg/kg). Conditions: po.
Test [2] concerns Mus musculus. In words: Effective i.p. dose tested for muscle relaxant activity using inclined screen test in mouse (value range= 29.4-45.2 mg/kg). Conditions: ip.
The species named for test [3] is Gallus gallus. In words: Evaluated for inhibition of AMPA (5 uM) evoked spreading depression in isolated retina prepared from young chicken. It counts as functional.
For test [4], the species on record is Gallus gallus. In words: Evaluated for inhibition of AMPA (5 uM) evoked spreading depression in isolated retina prepared from young chicken at 20 uM. The format is functional.
The test system of test [5] is Mus musculus. In words: Effective p.o. dose tested for anticonvulsant activity using maximal electroshock seizure model in mouse (highest test concentration). The settings on record: po.
Test [6] concerns Mus musculus. In words: Effective i.p. dose tested for muscle relaxant activity using inclined screen test in mouse (highest test concentration). The settings on record: ip.
Test [7] has as its system Mus musculus. In words: Effective i.p. dose tested for muscle relaxant activity using inclined screen test in mouse (value range= 11.2-16.0 mg/kg). The settings on record: ip.
Test [8] concerns Mus musculus. As to the kind of experiment: Effective p.o. dose tested for anticonvulsant activity using maximal electroshock seizure model in mouse (high test concentration). Conditions: po.
Test [9] deals with Mus musculus. As to the kind of experiment: Effective p.o. dose tested for anticonvulsant activity using maximal electroshock seizure model in mouse (SMA). Conditions: po.
Test [10] has as its system Mus musculus. In words: Effective p.o. dose tested for anticonvulsant activity using maximal electroshock seizure model in mouse (highest test concentration). The settings on record: po. The source holds these as a separate data set.
The subject of test [11] is Mus musculus. In words: Effective p.o. dose tested for anticonvulsant activity using maximal electroshock seizure model in mouse. The settings on record: po.
The test system of test [12] is Mus musculus. As to the kind of experiment: Effective i.p. dose tested for muscle relaxant activity using inclined screen test in mouse (value range=100-200 mg/kg). The settings on record: ip.
For test [13], the system named is Mus musculus. In words: Effective p.o. dose tested for anticonvulsant activity using maximal electroshock seizure model in mouse (value range=25-50 mg/kg). The settings on record: po.

For the compound `Cc1cn2c(n1)Cc1ccc(Cl)cc1C(c1ccc(N)cc1)=N2`, the ED50 in test [1] turned out to be 24 mg/kg; in test [2] it was 36.5 mg/kg. Inhibition in test [3] was half-maximal at 7.3 µM (IC50).
For `CC(=O)Nc1ccc(C2=Nn3cc(C(=O)O)nc3Cc3ccc(Cl)cc32)cc1`, the Inhibition in [4] came to 33%. Also, the median effective dose (ED50) was over 100 mg/kg in test [5] and over 200 mg/kg in [6].
Turning to `CC(=O)N1N=C(c2ccc(N)cc2)c2cc3c(cc2C[C@H]1C)OCO3` [TALAMPANEL], the ED50 in test [7] turned out to be 13.4 mg/kg.
`CCOC(=O)c1cn2c(n1)Cc1ccc(Cl)cc1C(c1ccc(N)cc1)=N2`: the 50% effective dose (ED50) in test [8] is over 100 mg/kg; in [6], over 200 mg/kg. This compound also registered an IC50 in test [3] of 20 µM.
`CC(=O)Nc1ccc(C2=Nn3cc(CO)nc3Cc3ccc(Cl)cc32)cc1` returned a 50% effective dose (ED50) in test [9] of over 100 mg/kg.
On to `Nc1ccc(C2=Nn3cc(C(=O)O)nc3Cc3ccc(Cl)cc32)cc1`, for which the results for the ED50 in test [10] and in [6] were over 100 mg/kg and over 200 mg/kg, respectively. In addition, in test [4], the Inhibition was 55%.
As for `CC(=O)Nc1ccc(C2=Nn3cc(C)nc3Cc3ccc(Cl)cc32)cc1`, the ED50 was 56 mg/kg in [11] and over 200 mg/kg in test [6]. The IC50 in [3] was over 20 µM.
Turning to `Nc1ccc(C2=Nn3cc(CO)nc3Cc3ccc(Cl)cc32)cc1`, the ED50 in test [12] stood at 200 mg/kg; in [13], 50 mg/kg. In addition, the IC50 in test [3] was determined as 5 µM.
